Data taken from ChEMBL document CHEMBL1137522, “Two new phenylpiperazines with atypical antipsychotic potential” (Bioorg Med Chem Lett, 2007).
Activity calls are given as the source filed them. The rule behind the calls is not given here.

How the values were obtained:
D(2) dopamine receptor = D(2) dopamine receptor (Rattus norvegicus, UniProt P61169); test: Binding affinity at dopamine D2 receptor in rat striatal membranes; type: cell membranes, Striatum, Membrane
[1] = target: 5-hydroxytryptamine receptor 2A (Rattus norvegicus, UniProt P14842); test: Binding affinity at 5HT2A receptor in rat striatal membranes; type: cell membranes, Striatum, Membrane
Chain of 5-hydroxytryptamine receptor 2A (P14842 whole entry): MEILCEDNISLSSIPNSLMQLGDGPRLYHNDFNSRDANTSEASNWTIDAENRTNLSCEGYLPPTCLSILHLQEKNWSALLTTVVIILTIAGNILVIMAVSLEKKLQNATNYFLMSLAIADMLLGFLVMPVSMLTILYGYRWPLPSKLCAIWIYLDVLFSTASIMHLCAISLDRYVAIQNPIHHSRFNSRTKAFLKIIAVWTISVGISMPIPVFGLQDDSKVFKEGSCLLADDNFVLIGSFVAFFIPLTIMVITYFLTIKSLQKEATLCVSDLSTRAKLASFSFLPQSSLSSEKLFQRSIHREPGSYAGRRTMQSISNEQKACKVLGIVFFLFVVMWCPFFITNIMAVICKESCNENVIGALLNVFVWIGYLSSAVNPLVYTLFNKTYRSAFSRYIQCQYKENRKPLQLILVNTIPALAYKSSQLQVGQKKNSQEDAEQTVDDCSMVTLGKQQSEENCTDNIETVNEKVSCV

[2] = target: T1, 5-hydroxytryptamine receptor 1A (Rattus norvegicus, UniProt P19327); test: Binding affinity at 5HT1A receptor in rat striatal membranes; type: cell membranes, Striatum, Membrane
T1 sequence (P19327 whole entry): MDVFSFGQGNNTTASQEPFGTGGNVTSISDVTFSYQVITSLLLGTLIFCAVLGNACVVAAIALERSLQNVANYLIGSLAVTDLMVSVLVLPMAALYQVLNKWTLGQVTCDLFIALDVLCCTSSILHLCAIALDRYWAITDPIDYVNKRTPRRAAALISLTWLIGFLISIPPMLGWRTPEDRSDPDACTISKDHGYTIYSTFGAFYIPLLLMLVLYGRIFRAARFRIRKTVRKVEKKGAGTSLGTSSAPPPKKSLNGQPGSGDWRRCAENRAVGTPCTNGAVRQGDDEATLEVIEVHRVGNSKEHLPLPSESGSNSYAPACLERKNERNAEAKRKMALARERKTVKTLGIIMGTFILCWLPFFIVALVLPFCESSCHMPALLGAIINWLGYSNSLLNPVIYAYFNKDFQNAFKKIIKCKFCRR

[3] = Binding affinity at adrenergic alpha 1 receptor in rat striatal membranes; type: cell membranes, Striatum, Membrane
Rattus norvegicus = test: Induction of catalepsy in Mill Hill hooded rat at 10 mg/kg after 30-180 min; type: organism-based; design: dose 10 mg/kg; conditions: in vivo
Mus musculus = species: Mus musculus; test: Antagonist effect on amphetamine-induced hyperlocomotion in CPU mouse by open field test; type: functional, organism-based

Chain of D(2) dopamine receptor (P61169 whole entry): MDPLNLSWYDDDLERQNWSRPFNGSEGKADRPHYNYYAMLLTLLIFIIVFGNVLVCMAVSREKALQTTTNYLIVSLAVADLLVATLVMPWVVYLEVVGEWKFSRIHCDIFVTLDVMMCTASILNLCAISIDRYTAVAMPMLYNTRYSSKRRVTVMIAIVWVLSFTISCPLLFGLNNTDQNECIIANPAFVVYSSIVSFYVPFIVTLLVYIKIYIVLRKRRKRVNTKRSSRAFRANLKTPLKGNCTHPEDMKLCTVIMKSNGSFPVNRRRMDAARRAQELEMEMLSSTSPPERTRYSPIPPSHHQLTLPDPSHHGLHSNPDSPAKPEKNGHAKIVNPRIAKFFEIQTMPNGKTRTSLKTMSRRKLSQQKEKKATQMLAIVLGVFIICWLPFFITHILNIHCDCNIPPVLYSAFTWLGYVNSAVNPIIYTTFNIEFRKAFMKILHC

| Ki (D(2) dopamine receptor) | Ki [1] | Ki [2] | Log Ki [3] | SMILES | Activity (Rattus norvegicus) | Activity (Mus musculus) |
| --- | --- | --- | --- | --- | --- | --- |
| 0.0417 µM | 0.00204 µM | 0.933 µM | -7.53 | S=c1[nH]c2ccc(OCCCN3CCN(c4ccccc4)CC3)cc2[nH]1 | Not Active | Active |
| 0.00871 µM | 0.0794 µM | 0.0151 µM | -8.23 | COc1ccccc1N1CCN(CCCOc2ccc3[nH]cnc3c2)CC1 | – | – |
| 0.363 µM | 0.316 µM | 0.1 µM | -6.31 | FC(F)(F)c1cccc(N2CCN(CCCOc3ccc4[nH]c(=S)[nH]c4c3)CC2)c1 | – | – |
| 0.0151 µM | 0.102 µM | 0.389 µM | -6.92 | FC(F)(F)c1cccc(N2CCN(CCCOc3ccc4[nH]cnc4c3)CC2)c1 | – | – |
| 0.0759 µM | 0.0138 µM | 0.646 µM | -7.58 | c1ccc(N2CCN(CCCOc3ccc4[nH]cnc4c3)CC2)cc1 | Not Active | Active |
| 0.0017 µM | 0.0191 µM | 0.178 µM | -8.71 | COc1ccccc1N1CCN(CCCOc2ccc3[nH]c(=S)[nH]c3c2)CC1 | – | – |

| SMILES | Ki (D(2) dopamine receptor) | Ki [1] | Ki [2] | Log Ki [3] | Activity (Rattus norvegicus) | Activity (Mus musculus) |
| --- | --- | --- | --- | --- | --- | --- |
| CN1CCN(C2=Nc3cc(Cl)ccc3Nc3ccccc32)CC1 [CLOZAPINE] | – | – | – | -7.65 | – | – |
